How the values were obtained:
[1] = target: T1, EGF receptor kinase (intracellular domain of EGF receptor) (Homo sapiens, UniProt P00533); assay: Measurement of inhibition activity of EGF receptor kinase; format: biochemical; settings: EGFR kinase; test compound 1.0 μM; biotinyl-poly-Glu:Tyr (4:1), α-screen assay, 25° C. 10 minutes; read-out: Inhibition rate (%) in 1.0 μM
T1 construct: FLAG (N); made in house; host or cells: SF-21 insect cells infected with recombinant baculovirus BAC-EGFR
Description: Cloning of Human EGF Receptor Gene was performed with RT-PCR templating total RNA prepared from A431 cell. To attach Flag tag in N-terminal of EGF, a primer used in RT-PCR was manufactured by adding flag peptide coding sequence and restricted enzyme recognition sequence to the base sequence (2182-3810 in Genbank Accession XM—167493) which codes a part of intracellular domain of the protein using an information of base sequence of EGF receptor Gene (Genbank Accession XM—167493). The Base sequence of the primer was shown as below.
(§1) RT reaction was performed using a SuperScript First-Strand Synthesis system for RT-PCR (Invitrogen), and PCR reaction was performed using a KOD-plus kit (TOYOBO). The obtained PCR product was subjected to electrophoresis on agarose gel (1%), and digested with Sal I and Sph I after collecting a DNA fragment amplified by PCR from the gel. The DNA treated with restricted enzymes was subjected to electrophoresis on agarose gel (1%), the obtained DNA fragment was collected, and ligated to a plasmid pFASTBAC1 (Invitrogen) digested with restricted enzymes Sal I and Sph I, and expression plasmid pFB-HER2 was manufactured. Base sequence of inserted fragment was confirmed. As a result, the base sequence of inserted fragment was corresponded with base sequence of the intracellular domain of EGFR (pp. 2182-3810 in Genbank Accession XM—167493). Further, a recombinant baculovirus BAC-EGFR was prepared using BAC-TO-BAC Baculovirus Expression System (Invitrogen).
A SF-21 cell was plated with 1×10^6 cells/ml in a Sf-900II SFM medium (Invitrogen) containing 10% of a fetal bovine serum (Trace), 50 mg/L of Gentamicin (Invitrogen) and 0.1% of Pluronic F-68 (Invitrogen), and cultured with shaking at 27° C. at 100 rpm using a 2 L meyer. After culturing for 24 hours, 13.4 mL of a recombinant baculovirus EGFR was added thereto, and further cultured for 3 days. The cultured solution was centrifuged in 2,000 rpm for 5 minutes, and a virus-infected cell was obtained. The cell was washed with phosphate buffered saline (Invitrogen), centrifuged under the same condition, and then preserved at −80° C. The freezing preserved cell was melted on ice, suspended with 30 mL of a buffer A (50 mM of tris-buffer containing 20% of glycerol and 0.15M of NaCl (pH 7.4)) to which was added Complete Protease Inhibitor (Behringer), and crushed at 20,000 rpm for 30 seconds three times using Polytron homogenizer (Kinematica). The crushed solution was clarified by centrifugation at 40,000 rpm for 30 minutes, and filtered using a 45 μm filter. The filtrate was passed through a column which is filled with Anti-FLAG M2 Affinity Gel (Sigma Corp.) in a flow rate of about 0.5 mL/min. The column was washed with a buffer A, and eluted with a buffer containing 100 μg/ml of FLAG peptide. […]

[2] = target: T2, HER2 kinase (intracellular domain of HER2) (Homo sapiens, UniProt P04626); assay: Measurement of inhibition activity of HER2 kinase; format: biochemical; settings: test compound 1.0 μM, poly-Glu:Tyr(4:1) substrate, [γ-32P]ATP, 25° C. 10 minutes, read-out: Inhibition rate (%) in 1.0 μM
T2 construct: FLAG (N); made in house; host or cells: SF-21 insect cells infected with recombinant baculovirus BAC-HER2
T2 sequence (P04626 676-1255 limits assumed): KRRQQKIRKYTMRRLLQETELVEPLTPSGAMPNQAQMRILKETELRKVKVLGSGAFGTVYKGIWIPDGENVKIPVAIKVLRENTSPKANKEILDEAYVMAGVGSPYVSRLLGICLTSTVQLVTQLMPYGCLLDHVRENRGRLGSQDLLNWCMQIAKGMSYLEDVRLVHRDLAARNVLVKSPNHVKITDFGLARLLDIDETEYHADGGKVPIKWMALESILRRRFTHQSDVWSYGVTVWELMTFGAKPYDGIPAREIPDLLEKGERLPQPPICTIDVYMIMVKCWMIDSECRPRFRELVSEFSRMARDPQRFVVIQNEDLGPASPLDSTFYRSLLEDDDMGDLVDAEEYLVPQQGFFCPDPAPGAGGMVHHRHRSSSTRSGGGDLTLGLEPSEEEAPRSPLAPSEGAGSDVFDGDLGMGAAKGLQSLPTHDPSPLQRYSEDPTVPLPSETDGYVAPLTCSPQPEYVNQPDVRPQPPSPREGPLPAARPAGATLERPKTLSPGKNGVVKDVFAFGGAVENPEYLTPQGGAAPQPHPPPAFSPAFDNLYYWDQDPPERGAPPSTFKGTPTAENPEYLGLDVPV
Description: Cloning of Human HER2 Gene was performed with RT-PCR templating total RNA prepared from MCF 7 cell. To attach Flag tag in N-terminal of HER2, a primer used in RT-PCR was manufactured by adding flag peptide coding sequence and restricted enzyme recognition sequence to the base sequence (2176-3918 in Genbank Accession M11730) which codes a part of intracellular domain of the protein using an information of base sequence of HER2 Gene (Genbank Accession M11730). Base sequence of the primer was shown as below.
as §1, with “I, resulting that” for “I, and”, “of the HER2” for “of EGFR”, “(pp. 2176-3918” for “(pp. 2182-3810”, “Accession M11730).” for “Accession XM—167493).”, “baculovirus BAC-HER2” for “baculovirus BAC-EGFR”
A SF-21 cell was plated with 1×10^6 cells/ml in a Sf-900II SFM medium (Invitrogen) containing 10% of fetal bovine serum (Trace), 50 mg/L of Gentamicin (Invitrogen) and 0.1% of Pluronic F-68 (Invitrogen), and cultured with shaking at 27° C. at 100 rpm using a 2 L meyer. After culturing for 24 hours, 13.4 ml of a recombinant baculovirus BAC-HER2 was added thereto, and further cultured for 3 days. The cultured solution was centrifuged at 2,000 rpm for 5 minutes, and a virus-infected cell was obtained. The cell was washed with phosphate buffered saline (Invitrogen), centrifuged under the same condition, and preserved at −80° C. The freezing preserved cell was melted on ice, suspended with 30 ml of a buffer A (50 mM of tris-buffer containing 20% of glycerol and 0.15M of NaCl (pH 7.4)) to which was added Complete Protease Inhibitor (Behringer), and crushed at 20,000 rpm for 30 seconds three times using Polytron homogenizer (Kinematica). The crushed solution was clarified by centrifugation at 40,000 rpm for 30 minutes, and filtered using a 45 μm filter. The filtrate was passed through a column filled with Anti-FLAG M2 Affinity Gel (Sigma Corp.) in a flow rate of about 0.5 mL/min. The column was washed with a buffer A, and eluted with a buffer A containing 100 μg/mL of FLAG peptide. The eluted solution was concentrated by Vivaspin 20 of MWCO (molecular weight of cut-off) 30K (Vivascience). This concentrated solution was gel-filtrated and purified by a Hi Load Superdex 200 pg 16/60 (Amersham Biosciences) equilibrated with the buffer A. The fraction containing the intracellular domain of HER2 was collected, and glycerol was added thereto to be a 50% of terminal concentration, and then freezing preserved at −80° C.
The test compound dissolved in dimethylsulfoxide (DMSO) was diluted with buffer for measuring the kinase reaction (50 mM of Tris-HCl (pH 7.5), 5 mM of MgCl2, 5 mM MnCl2, 2 mM of dithiothreitol, 0.01% of Tween-20). […]

T1 sequence (P00533 669-1210 limits assumed): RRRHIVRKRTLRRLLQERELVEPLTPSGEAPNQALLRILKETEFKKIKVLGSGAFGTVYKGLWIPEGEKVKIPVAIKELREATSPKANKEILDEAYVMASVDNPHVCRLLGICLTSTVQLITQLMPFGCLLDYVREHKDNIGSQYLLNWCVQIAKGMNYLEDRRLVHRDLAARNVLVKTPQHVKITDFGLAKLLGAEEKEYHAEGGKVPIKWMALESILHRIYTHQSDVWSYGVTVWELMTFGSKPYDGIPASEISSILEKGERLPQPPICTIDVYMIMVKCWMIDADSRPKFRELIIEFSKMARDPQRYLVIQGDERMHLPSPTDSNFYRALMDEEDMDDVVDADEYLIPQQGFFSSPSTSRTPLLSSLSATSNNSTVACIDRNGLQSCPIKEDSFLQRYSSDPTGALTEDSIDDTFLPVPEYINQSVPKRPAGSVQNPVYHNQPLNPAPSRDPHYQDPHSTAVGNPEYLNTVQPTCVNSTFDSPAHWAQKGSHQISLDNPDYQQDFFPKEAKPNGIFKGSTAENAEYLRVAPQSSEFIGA

Row | Compound | inhibition at 1 µM [1] | inhibition at 1 µM [2]
1 | CC(=O)NCCCCCc1nc2c(Nc3ccc(OCc4cccc(F)c4)c(Cl)c3)ncnc2s1 [Example 46, N-{5-[7-({3-chloro-4-[(3-fluorobenzyl)oxy]phenyl}amino) [1,3]thiazolo[5,4-d]pyrimidin-2-yl]pentyl}acetamide] | 81% | –
2 | COCCNC(=O)c1nc2c(Nc3ccc(OCc4cccc(F)c4)c(Cl)c3)ncnc2s1 [Example 20, 7-({3-chloro-4-[(3-fluorobenzyl)oxy]phenyl}amino)-N-(2-methoxyethyl) [1,3]thiazolo[5,4-d]pyrimidine-2-carboxamide] | 91% | –
3 | O=C(CO)NCc1ccc(-c2nc3c(Nc4ccc(OCc5ccsc5)c(Cl)c4)ncnc3s2)cc1 [Example 80, N-[4-(7-{[3-chloro-4-(3-thienylmethoxy)phenyl]amino}[1,3]thiazolo[5,-d]pyrimidin-2-yl)benzyl]-2-hydroxyacetamide] | – | 87%
4 | OCCNCc1ccc(-c2nc3c(Nc4ccc(Oc5cccc(C(F)(F)F)c5)c(Cl)c4)ncnc3s2)cc1 [Example 58, 2-({4-[7-({3-chloro-4-[3-(trifluoromethyl)phenoxy]phenyl}amino)[1,3]thiazolo[5,4-d]pyrimidin-2-yl]benzyl}amino)ethanol] | – | 90%
5 | CS(=O)(=O)CCNCCNC(=O)c1nc2c(Nc3ccc(OCc4cccc(F)c4)c(Cl)c3)ncnc2s1 [Example 25, 7-({3-chloro-4-[(3-fluorobenzyl)oxy]phenyl}amino)-N-(2-{[2-(methylsulfonyl)ethyl]amino}ethyl)[1,3]thiazolo[5,4-d]pyrimidine-2-carboxamide] | 88% | –
6 | Fc1cccc(COc2ccc(Nc3ncnc4sc(C5CC5)nc34)cc2Cl)c1 [Example 52, N-{3-chloro-4-[(3-fluorobenzyl)oxy]phenyl}-2-cyclopropyl[1,3]thiazolo[5,4-d]pyrimidin-7-amine] | 81% | –

The remaining lines, values ahead:

Row | inhibition at 1 µM [1] | inhibition at 1 µM [2] | Compound
7 | – | 89% | COCCNCCc1ccc(-c2nc3c(Nc4ccc(Oc5ccc(C)nc5)c(C)c4)ncnc3s2)cc1 [Example 41, 2-(4-{2-[(2-methoxyethyl)amino]ethyl}phenyl)-N-{3-methyl-4-[(6-methylpyridin-3-yl)oxy]phenyl}[1,3]thiazolo[5,4-d]pyrimidin-7-amine]
8 | – | 96% | COCCNCc1ccc(-c2nc3c(Nc4ccc(F)c(Cl)c4)ncnc3s2)cc1 [Example 39, N-(3-chloro-4-fluorophenyl)-2-(4-{[(2-methoxyethyl)amino]methyl}phenyl) [1,3]thiazolo[5,4-d]pyrimidin-7-amine]
9 | – | 92% | OCCNCc1ccc(-c2nc3c(Nc4ccc(OCc5cccc(F)c5)c(Cl)c4)ncnc3s2)cc1 [Example 26, 2-({4-[7-({3-chloro-4-[(3-fluorobenzyl)oxy]phenyl}amino)[1,3]thiazolo[5,4-d]pyrimidin-2-yl]benzyl}amino)ethanol]
